Assays:
[1] = Displacement of [125I]NT from neurotensin receptor in human HT-29 cells; type: cell-based
HT-29 = assay: Antagonist activity at neurotensin receptor in human HT-29 cells assessed as effect on NT-induced intracellular Ca2+ increase by spectrofluorimetry; type: functional, cell-based

With CC[C@H](C)[C@@H]1NC(=O)[C@@H]2CCCN2C(=O)[C@H](CS)NC(=O)CNC(=O)[C@H](CCC(=O)O)NC(=O)[C@H](CO)NC(=O)[C@H](CS)NC(=O)[C@H](C(C)C)NC(=O)[C@H](Cc2ccccc2)NC(=O)[C@H]([C@@H](C)CC)NC(=O)[C@@H]2CCCN2C(=O)[C@H](CS)NC(=O)[C@H]([C@H](C)O)NC(=O)[C@H](C(C)C)NC(=O)[C@H]([C@H](C)O)NC(=O)[C@H](C)NC(=O)[C@H](CC(C)C)NC(=O)[C@H](CC(C)C)NC(=O)CNC(=O)[C@H](CS)NC(=O)[C@H](CO)NC(=O)[C@H](CS)NC(=O)[C@H](CCCCN)NC(=O)[C@H](CO)NC(=O)[C@H](CCCCN)NC(=O)[C@H](C(C)C)NC(=O)[C@H](CS)NC(=O)[C@H](Cc2ccc(O)cc2)NC(=O)[C@H](CCCCN)NC(=O)[C@H](CC(N)=O)NC(=O)[C@H](CO)NC1=O [CYCLOPSYCHOTRIDE A] the IC50 [1] was 3000 nM and the Activity (HT-29) was “Dose-dependent effect”.
